Biological target: human δ-opioid receptor (Homo sapiens, UniProt P41143)
Test: [35S]-GTPγS functional assay
Type: biochemical
Details: from [35S]-GTPγS assay

Chain of human δ-opioid receptor (P41143 whole entry): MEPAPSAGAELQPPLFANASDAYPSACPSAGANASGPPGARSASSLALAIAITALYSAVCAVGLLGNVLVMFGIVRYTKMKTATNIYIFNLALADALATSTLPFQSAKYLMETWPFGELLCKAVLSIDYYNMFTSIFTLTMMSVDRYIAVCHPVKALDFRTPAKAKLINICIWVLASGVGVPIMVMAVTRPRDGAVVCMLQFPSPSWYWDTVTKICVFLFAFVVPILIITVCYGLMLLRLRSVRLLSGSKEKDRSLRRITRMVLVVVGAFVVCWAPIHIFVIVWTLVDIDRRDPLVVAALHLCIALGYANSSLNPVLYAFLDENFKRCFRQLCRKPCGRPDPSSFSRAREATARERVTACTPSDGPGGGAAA

COc1cc(O)c2c(c1)CC(=O)CCCC(=O)CCC[C@@H](C)OC2=O [Compound 4, neocosmosin C]
classification of functional activity at the human δ-opioid receptor: full agonist
